Measured values from ChEMBL document CHEMBL4325853, “Design, synthesis and antibacterial evaluation of 2,4-disubstituted-6-thiophenyl-pyrimidines” (Eur J Med Chem, 2019).
Converted amounts (≈) assume the structure as drawn.

Key:
Type in all cases: functional
[1] = system: Bacillus subtilis; test: Antibacterial activity against Bacillus subtilis 168 after 18 hrs by broth microdilution method; details: subsp. subtilis str. 168, 18 h
[2] = system: Staphylococcus aureus; test: Antibacterial activity against Staphylococcus aureus ATCC 29213 after 18 hrs by broth microdilution method; details: ATCC 29213, 18 h
[3] = system: Enterococcus faecalis; test: Antibacterial activity against Enterococcus faecalis ATCC 29212 after 18 hrs by broth microdilution method; details: ATCC 29212, 18 h
[4] = system: Staphylococcus epidermidis; test: Potency index, ratio of berberine MIC to test compound MIC for Staphylococcus epidermidis ATCC 12228
[5] = system: Staphylococcus aureus; test: Antibacterial activity against methicillin-resistant Staphylococcus aureus ATCC BAA1720 after 18 hrs by broth microdilution method; details: ATCC BAA1720, 18 h
[6] = system: Staphylococcus aureus; test: Antibacterial activity against methicillin-resistant Staphylococcus aureus ATCC 33591 after 18 hrs by broth microdilution method; details: ATCC 33591, 18 h
[7] = system: Staphylococcus aureus; test: Antibacterial activity against methicillin-resistant Staphylococcus aureus ATCC 43300 after 18 hrs by broth microdilution method; details: ATCC 43300, 18 h
[8] = system: Enterococcus faecalis; test: Antibacterial activity against vancomycin-resistant Enterococcus faecalis ATCC 51575 after 18 hrs by broth microdilution method; details: ATCC 51575, 18 h
[9] = system: Enterococcus faecalis; test: Antibacterial activity against vancomycin-resistant Enterococcus faecalis ATCC 700221 after 18 hrs by broth microdilution method; details: ATCC 700221, 18 h
[10] = system: Staphylococcus aureus; test: Potency index, ratio of methicillin MIC to test compound MIC for methicillin-resistant Staphylococcus aureus ATCC BAA1720
[11] = system: Staphylococcus aureus; test: Potency index, ratio of methicillin MIC to test compound MIC for methicillin-resistant Staphylococcus aureus ATCC 33591
[12] = system: Staphylococcus aureus; test: Potency index, ratio of methicillin MIC to test compound MIC for methicillin-resistant Staphylococcus aureus ATCC 33592
[13] = system: Staphylococcus aureus; test: Potency index, ratio of methicillin MIC to test compound MIC for methicillin-resistant Staphylococcus aureus ATCC 43300
[14] = system: Staphylococcus aureus; test: Antibacterial activity against methicillin-resistant Staphylococcus aureus isolate 1428 after 18 hrs by broth microdilution method; details: isolate 1428, 18 h
[15] = system: Staphylococcus aureus; test: Antibacterial activity against methicillin-resistant Staphylococcus aureus isolate 8162 after 18 hrs by broth microdilution method; details: isolate 8162, 18 h
[16] = system: Staphylococcus aureus; test: Antibacterial activity against methicillin-resistant Staphylococcus aureus isolate 3123 after 18 hrs by broth microdilution method; details: isolate 3123, 18 h
[17] = system: Staphylococcus aureus; test: Antibacterial activity against methicillin-resistant Staphylococcus aureus isolate 7717 after 18 hrs by broth microdilution method; details: isolate 7717, 18 h
[18] = system: Staphylococcus aureus; test: Antibacterial activity against methicillin-resistant Staphylococcus aureus isolate 2671 after 18 hrs by broth microdilution method; details: isolate 2671, 18 h
[19] = system: Staphylococcus aureus; test: Antibacterial activity against methicillin-resistant Staphylococcus aureus isolate 3170 after 18 hrs by broth microdilution method; details: isolate 3170, 18 h
[20] = system: Staphylococcus aureus; test: Antibacterial activity against methicillin-resistant Staphylococcus aureus isolate 4127 after 18 hrs by broth microdilution method; details: isolate 4127, 18 h
[21] = system: Staphylococcus aureus; test: Antibacterial activity against methicillin-resistant Staphylococcus aureus isolate 7971 after 18 hrs by broth microdilution method; details: isolate 7971, 18 h
[22] = system: Staphylococcus aureus; test: Antibacterial activity against methicillin-resistant Staphylococcus aureus isolate 7807 after 18 hrs by broth microdilution method; details: isolate 7807, 18 h
[23] = system: Staphylococcus aureus; test: Antibacterial activity against methicillin-resistant Staphylococcus aureus isolate 7943 after 18 hrs by broth microdilution method; details: isolate 7943, 18 h
[24] = system: Staphylococcus aureus; test: Antibacterial activity against methicillin-resistant Staphylococcus aureus isolate 1610 after 18 hrs by broth microdilution method; details: isolate 1610, 18 h
[25] = system: Staphylococcus aureus; test: Antibacterial activity against methicillin-resistant Staphylococcus aureus isolate 6334 after 18 hrs by broth microdilution method; details: isolate 6334, 18 h
[26] = system: Staphylococcus aureus; test: Antibacterial activity against methicillin-resistant Staphylococcus aureus isolate 7864 after 18 hrs by broth microdilution method; details: isolate 7864, 18 h
[27] = system: Staphylococcus aureus; test: Antibacterial activity against methicillin-resistant Staphylococcus aureus isolate 7972 after 18 hrs by broth microdilution method; details: isolate 7972, 18 h
[28] = system: Staphylococcus aureus; test: Antibacterial activity against methicillin-resistant Staphylococcus aureus isolate 1220 after 18 hrs by broth microdilution method; details: isolate 1220, 18 h
[29] = system: Staphylococcus aureus; test: Antibacterial activity against methicillin-resistant Staphylococcus aureus isolate 6515 after 18 hrs by broth microdilution method; details: isolate 6515, 18 h
[30] = system: Staphylococcus aureus; test: Antibacterial activity against methicillin-resistant Staphylococcus aureus isolate 4023 after 18 hrs by broth microdilution method; details: isolate 4023, 18 h
[31] = system: Staphylococcus aureus; test: Antibacterial activity against methicillin-resistant Staphylococcus aureus isolate 7960 after 18 hrs by broth microdilution method; details: isolate 7960, 18 h
[32] = system: Staphylococcus aureus; test: Antibacterial activity against methicillin-resistant Staphylococcus aureus isolate 4955 after 18 hrs by broth microdilution method; details: isolate 4955, 18 h
[33] = system: Staphylococcus aureus; test: Antibacterial activity against methicillin-resistant Staphylococcus aureus isolate 5395 after 18 hrs by broth microdilution method; details: isolate 5395, 18 h
[34] = system: Staphylococcus aureus; test: Antibacterial activity against methicillin-resistant Staphylococcus aureus isolate 7844 after 18 hrs by broth microdilution method; details: isolate 7844, 18 h
[35] = system: Staphylococcus aureus; test: Antibacterial activity against methicillin-resistant Staphylococcus aureus isolate 2158 after 18 hrs by broth microdilution method; details: isolate 2158, 18 h
[36] = system: Staphylococcus aureus; test: Antibacterial activity against methicillin-resistant Staphylococcus aureus isolate 2350 after 18 hrs by broth microdilution method; details: isolate 2350, 18 h
[37] = system: Staphylococcus aureus; test: Antibacterial activity against methicillin-resistant Staphylococcus aureus isolate 7664 after 18 hrs by broth microdilution method; details: isolate 7664, 18 h
[38] = system: Staphylococcus aureus; test: Antibacterial activity against methicillin-resistant Staphylococcus aureus isolate 7587 after 18 hrs by broth microdilution method; details: isolate 7587, 18 h
[39] = system: Staphylococcus aureus; test: Antibacterial activity against methicillin-resistant Staphylococcus aureus isolate 4548 after 18 hrs by broth microdilution method; details: isolate 4548, 18 h
[40] = system: Staphylococcus aureus; test: Antibacterial activity against methicillin-resistant Staphylococcus aureus isolate 5056 after 18 hrs by broth microdilution method; details: isolate 5056, 18 h
[41] = system: Staphylococcus aureus; test: Antibacterial activity against methicillin-resistant Staphylococcus aureus isolate 7434 after 18 hrs by broth microdilution method; details: isolate 7434, 18 h
[42] = system: Staphylococcus aureus; test: Antibacterial activity against methicillin-resistant Staphylococcus aureus isolate 7449 after 18 hrs by broth microdilution method; details: isolate 7449, 18 h
[43] = system: Staphylococcus aureus; test: Antibacterial activity against methicillin-resistant Staphylococcus aureus isolate 7183 after 18 hrs by broth microdilution method; details: isolate 7183, 18 h
[44] = system: Staphylococcus aureus; test: Bactericidal activity against methicillin-resistant Staphylococcus aureus ATCC BAA41 after 18 hrs by broth microdilution method; details: ATCC BAA41, 18 h
[45] = system: Staphylococcus aureus; test: Bactericidal activity against methicillin-resistant Staphylococcus aureus ATCC 43300 after 18 hrs by broth microdilution method; details: ATCC 43300, 18 h
[46] = system: Enterococcus faecalis; test: Bactericidal activity against vancomycin-resistant Enterococcus faecalis ATCC 700221 after 18 hrs by broth microdilution method; details: ATCC 700221, 18 h
[47] = system: Enterococcus faecalis; test: Ratio of MBC to MIC for vancomycin-resistant Enterococcus faecalis ATCC 700221

CC(C)(C)c1ccc(CN2CCCN(CCc3cc(-c4cccs4)nc(-c4ccncc4)n3)CC2)cc1 was tested, and the MIC90 [1] was 2 µg/mL (≈ 3.91 µM), the MIC90 [2] was 2 µg/mL (≈ 3.91 µM) and the MIC90 [3] was 2 µg/mL (≈ 3.91 µM). For the same compound, the Ratio [4] was 50 - 100, the MIC90 [5] was 2 µg/mL (≈ 3.91 µM) and the MIC90 [6] was 2 µg/mL (≈ 3.91 µM). For the same compound, the MIC90 [7] was 2 µg/mL (≈ 3.91 µM), the MIC90 [8] was 4 µg/mL (≈ 7.82 µM) and the MIC90 [9] was 4 µg/mL (≈ 7.82 µM). For the same compound, the Ratio [10] was >100, the Ratio [11] was >100 and the Ratio [12] was >100. For the same compound, the Ratio [13] was >100, the MIC90 [14] was 2 µg/mL (≈ 3.91 µM) and the MIC90 [15] was 2 µg/mL (≈ 3.91 µM). The MIC90 [16] was 2 µg/mL (≈ 3.91 µM), the MIC90 [17] was 2 µg/mL (≈ 3.91 µM) and the MIC90 [18] was 2 µg/mL (≈ 3.91 µM). The MIC90 [19] was 2 µg/mL (≈ 3.91 µM), the MIC90 [20] was 2 µg/mL (≈ 3.91 µM) and the MIC90 [21] was 2 µg/mL (≈ 3.91 µM). For the same compound, the MIC90 [22] was 2 µg/mL (≈ 3.91 µM), the MIC90 [23] was 2 µg/mL (≈ 3.91 µM) and the MIC90 [24] was 4 µg/mL (≈ 7.82 µM). It also gave an MIC90 [25] of 2 µg/mL (≈ 3.91 µM), an MIC90 [26] of 2 µg/mL (≈ 3.91 µM) and an MIC90 [27] of 2 µg/mL (≈ 3.91 µM). The MIC90 [28] was 2 µg/mL (≈ 3.91 µM), the MIC90 [29] was 4 µg/mL (≈ 7.82 µM) and the MIC90 [30] was 2 µg/mL (≈ 3.91 µM). It also gave an MIC90 [31] of 2 µg/mL (≈ 3.91 µM), an MIC90 [32] of 2 µg/mL (≈ 3.91 µM) and an MIC90 [33] of 2 µg/mL (≈ 3.91 µM). The MIC90 [34] was 2 µg/mL (≈ 3.91 µM), the MIC90 [35] was 2 µg/mL (≈ 3.91 µM) and the MIC90 [36] was 2 µg/mL (≈ 3.91 µM). For the same compound, the MIC90 [37] was 2 µg/mL (≈ 3.91 µM), the MIC90 [38] was 2 µg/mL (≈ 3.91 µM) and the MIC90 [39] was 2 µg/mL (≈ 3.91 µM). It also gave an MIC90 [40] of 2 µg/mL (≈ 3.91 µM), an MIC90 [41] of 2 µg/mL (≈ 3.91 µM) and an MIC90 [42] of 2 µg/mL (≈ 3.91 µM). The MIC90 [43] was 2 µg/mL (≈ 3.91 µM), the MBC [44] was 2 µg/mL (≈ 3.91 µM) and the MBC [45] was 4 µg/mL (≈ 7.82 µM). It also gave an MBC [46] of 4 µg/mL (≈ 7.82 µM) and a Ratio [47] of 1.
With CN[C@H](CC(C)C)C(=O)N[C@H]1C(=O)N[C@@H](CC(N)=O)C(=O)N[C@H]2C(=O)N[C@H]3C(=O)N[C@H](C(=O)N[C@H](C(=O)O)c4cc(O)cc(O)c4-c4cc3ccc4O)[C@H](O)c3ccc(c(Cl)c3)Oc3cc2cc(c3O[C@@H]2O[C@H](CO)[C@@H](O)[C@H](O)[C@H]2O[C@H]2C[C@](C)(N)[C@H](O)[C@H](C)O2)Oc2ccc(cc2Cl)[C@H]1O [VANCOMYCIN] the MIC90 [1] was 1 µg/mL (≈ 0.69 µM), the MIC90 [2] was 1 µg/mL (≈ 0.69 µM) and the MIC90 [3] was > 64 µg/mL. For the same compound, the MIC90 [5] was 2 µg/mL (≈ 1.38 µM), the MIC90 [6] was 2 µg/mL (≈ 1.38 µM) and the MIC90 [7] was 2 µg/mL (≈ 1.38 µM). The MIC90 [8] was > 64 µg/mL, the MIC90 [9] was > 64 µg/mL and the MIC90 [14] was 0.5 µg/mL (≈ 0.345 µM). The MIC90 [15] was 1 µg/mL (≈ 0.69 µM), the MIC90 [16] was 1 µg/mL (≈ 0.69 µM) and the MIC90 [17] was 1 µg/mL (≈ 0.69 µM). It also gave an MIC90 [18] of 1 µg/mL (≈ 0.69 µM), an MIC90 [19] of 2 µg/mL (≈ 1.38 µM) and an MIC90 [20] of 1 µg/mL (≈ 0.69 µM). It also gave an MIC90 [21] of 1 µg/mL (≈ 0.69 µM), an MIC90 [22] of 2 µg/mL (≈ 1.38 µM) and an MIC90 [23] of 2 µg/mL (≈ 1.38 µM). It also gave an MIC90 [24] of 1 µg/mL (≈ 0.69 µM), an MIC90 [25] of 1 µg/mL (≈ 0.69 µM) and an MIC90 [26] of 1 µg/mL (≈ 0.69 µM). It also gave an MIC90 [27] of 1 µg/mL (≈ 0.69 µM), an MIC90 [28] of 0.5 µg/mL (≈ 0.345 µM) and an MIC90 [29] of 1 µg/mL (≈ 0.69 µM). The MIC90 [30] was 2 µg/mL (≈ 1.38 µM), the MIC90 [31] was 2 µg/mL (≈ 1.38 µM) and the MIC90 [32] was 1 µg/mL (≈ 0.69 µM). It also gave an MIC90 [33] of 1 µg/mL (≈ 0.69 µM), an MIC90 [34] of 1 µg/mL (≈ 0.69 µM) and an MIC90 [35] of 1 µg/mL (≈ 0.69 µM). For the same compound, the MIC90 [36] was 1 µg/mL (≈ 0.69 µM), the MIC90 [37] was 0.5 µg/mL (≈ 0.345 µM) and the MIC90 [38] was 2 µg/mL (≈ 1.38 µM). The MIC90 [39] was 2 µg/mL (≈ 1.38 µM), the MIC90 [40] was 2 µg/mL (≈ 1.38 µM) and the MIC90 [41] was 1 µg/mL (≈ 0.69 µM). For the same compound, the MIC90 [42] was 1 µg/mL (≈ 0.69 µM) and the MIC90 [43] was 2 µg/mL (≈ 1.38 µM).
